The record followed here is ChEMBL document CHEMBL5649166, “RIP3 induces apoptosis independent of pronecrotic kinase activity” (Mol Cell, 2014).

Test [1] deals with T1, Dual specificity tyrosine-phosphorylation-regulated kinase 3 (Homo sapiens) (UniProt O43781).
T1 sequence (whole entry): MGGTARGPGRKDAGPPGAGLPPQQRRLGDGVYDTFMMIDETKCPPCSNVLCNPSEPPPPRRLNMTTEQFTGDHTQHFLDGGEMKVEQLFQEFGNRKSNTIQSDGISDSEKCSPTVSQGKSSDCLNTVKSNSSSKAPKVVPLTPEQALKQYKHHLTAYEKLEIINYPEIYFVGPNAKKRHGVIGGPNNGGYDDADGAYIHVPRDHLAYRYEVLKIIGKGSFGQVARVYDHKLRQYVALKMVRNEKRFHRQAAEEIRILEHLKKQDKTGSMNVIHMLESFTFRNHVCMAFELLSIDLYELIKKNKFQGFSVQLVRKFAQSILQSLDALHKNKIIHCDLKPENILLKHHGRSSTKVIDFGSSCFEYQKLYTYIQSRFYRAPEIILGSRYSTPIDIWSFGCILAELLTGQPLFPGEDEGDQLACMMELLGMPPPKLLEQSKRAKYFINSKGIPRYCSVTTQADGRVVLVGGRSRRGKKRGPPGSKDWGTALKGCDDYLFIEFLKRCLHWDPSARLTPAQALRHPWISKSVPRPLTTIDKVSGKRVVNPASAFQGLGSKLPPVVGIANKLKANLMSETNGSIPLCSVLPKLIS
Briefly: Residual activity of human DYRK3 using RRRFRPASPLRGPPK as substrate at 1 uM in presence of 32P-ATP by Hotspot assay relative to control.

Test [2] deals with Tyrosine-protein kinase Fyn (Homo sapiens) (UniProt P06241). Briefly: Inhibition of human FYN using poly[Glu:Tyr] (4:1) as substrate at 1 uM in presence of 32P-ATP by Hotspot assay relative to control; values are per cent of control.
Sequence of Tyrosine-protein kinase Fyn (Homo sapiens) (P06241 2-537 limits assumed): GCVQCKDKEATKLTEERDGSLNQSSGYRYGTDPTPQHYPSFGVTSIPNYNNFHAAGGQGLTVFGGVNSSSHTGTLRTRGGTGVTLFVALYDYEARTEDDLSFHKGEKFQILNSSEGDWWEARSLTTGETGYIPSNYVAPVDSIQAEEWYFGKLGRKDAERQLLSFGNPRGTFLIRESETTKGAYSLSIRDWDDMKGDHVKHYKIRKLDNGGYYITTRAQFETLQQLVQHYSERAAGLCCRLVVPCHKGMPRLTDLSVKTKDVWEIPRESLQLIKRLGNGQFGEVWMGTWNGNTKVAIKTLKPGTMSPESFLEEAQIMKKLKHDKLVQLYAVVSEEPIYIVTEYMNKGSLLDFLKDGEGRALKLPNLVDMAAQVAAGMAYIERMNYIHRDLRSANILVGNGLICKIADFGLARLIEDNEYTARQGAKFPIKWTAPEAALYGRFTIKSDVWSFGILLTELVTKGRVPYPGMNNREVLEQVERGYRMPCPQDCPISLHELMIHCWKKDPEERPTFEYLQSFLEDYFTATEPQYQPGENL
In test [3] the target is Serine/threonine-protein kinase OSR1 (Homo sapiens) (UniProt O95747). Briefly: Inhibition of human OSR1/OXSR1 using RRHYYYDTHTNTYYLRTFGHNTRR as substrate at 1 uM in presence of 32P-ATP by Hotspot assay relative to control; values are per cent of control.
Test [4] deals with Serine/threonine-protein kinase 25 (Homo sapiens) (UniProt O00506). Briefly: Inhibition of human STK25/YSK1 using myelin basic protein as substrate at 1 uM in presence of 32P-ATP by Hotspot assay relative to control; values are per cent of control.
Test [5] concerns the target Myosin light chain kinase, smooth muscle (Homo sapiens) (UniProt Q15746). Put plainly: Inhibition of human MLCK/MYLK using KKLNRTLSFAEPG as substrate at 1 uM in presence of 32P-ATP by Hotspot assay relative to control; values are per cent of control.
The target in test [6] is Casein kinase I isoform alpha (Homo sapiens) (UniProt P48729). Put plainly: Inhibition of human CK1a1 using KRRRAL[pS]VASLPGL as substrate at 1 uM in presence of 32P-ATP by Hotspot assay relative to control; values are per cent of control.
Test [7] addresses Epidermal growth factor receptor (Homo sapiens) (UniProt P00533). Put plainly: Inhibition of human EGFR using poly[Glu:Tyr] (4:1) as substrate at 1 uM in presence of 32P-ATP by Hotspot assay relative to control; values are per cent of control.
The target of test [8] is Protein kinase C theta type (Homo sapiens) (UniProt Q04759). Put plainly: Residual activity of human PKCtheta using ERMRPRKRQGSVRRRV as substrate at 1 uM in presence of 32P-ATP by Hotspot assay relative to control.
Sequence of Protein kinase C theta type (Homo sapiens) (Q04759 whole entry, looked up): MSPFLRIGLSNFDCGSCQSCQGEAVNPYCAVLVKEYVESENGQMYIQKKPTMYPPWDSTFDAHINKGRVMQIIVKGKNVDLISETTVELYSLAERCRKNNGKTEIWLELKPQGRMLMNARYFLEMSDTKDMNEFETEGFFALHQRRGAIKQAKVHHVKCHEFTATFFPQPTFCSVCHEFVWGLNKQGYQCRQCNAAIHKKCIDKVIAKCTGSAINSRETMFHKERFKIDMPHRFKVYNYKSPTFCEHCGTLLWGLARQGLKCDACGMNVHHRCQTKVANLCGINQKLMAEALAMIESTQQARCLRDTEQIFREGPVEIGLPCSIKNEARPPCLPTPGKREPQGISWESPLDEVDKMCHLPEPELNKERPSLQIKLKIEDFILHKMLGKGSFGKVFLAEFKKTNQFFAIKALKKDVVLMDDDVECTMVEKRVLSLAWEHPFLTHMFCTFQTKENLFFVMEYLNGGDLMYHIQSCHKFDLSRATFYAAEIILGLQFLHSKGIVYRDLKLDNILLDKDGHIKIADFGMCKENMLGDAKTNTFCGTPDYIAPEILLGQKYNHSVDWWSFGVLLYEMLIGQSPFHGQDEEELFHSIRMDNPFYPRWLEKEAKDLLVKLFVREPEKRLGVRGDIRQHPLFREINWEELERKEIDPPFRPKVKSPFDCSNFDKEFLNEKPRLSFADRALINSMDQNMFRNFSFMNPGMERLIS
The target in test [9] is Serine/threonine-protein kinase SIK2 (Homo sapiens) (UniProt Q9H0K1). Put plainly: Inhibition of human SIK2 using AMARAASAAALARRR as substrate at 1 uM in presence of 32P-ATP by Hotspot assay relative to control.
The target of test [10] is T2, Dual specificity tyrosine-phosphorylation-regulated kinase 2 (Homo sapiens) (UniProt Q92630).
T2 sequence (whole entry): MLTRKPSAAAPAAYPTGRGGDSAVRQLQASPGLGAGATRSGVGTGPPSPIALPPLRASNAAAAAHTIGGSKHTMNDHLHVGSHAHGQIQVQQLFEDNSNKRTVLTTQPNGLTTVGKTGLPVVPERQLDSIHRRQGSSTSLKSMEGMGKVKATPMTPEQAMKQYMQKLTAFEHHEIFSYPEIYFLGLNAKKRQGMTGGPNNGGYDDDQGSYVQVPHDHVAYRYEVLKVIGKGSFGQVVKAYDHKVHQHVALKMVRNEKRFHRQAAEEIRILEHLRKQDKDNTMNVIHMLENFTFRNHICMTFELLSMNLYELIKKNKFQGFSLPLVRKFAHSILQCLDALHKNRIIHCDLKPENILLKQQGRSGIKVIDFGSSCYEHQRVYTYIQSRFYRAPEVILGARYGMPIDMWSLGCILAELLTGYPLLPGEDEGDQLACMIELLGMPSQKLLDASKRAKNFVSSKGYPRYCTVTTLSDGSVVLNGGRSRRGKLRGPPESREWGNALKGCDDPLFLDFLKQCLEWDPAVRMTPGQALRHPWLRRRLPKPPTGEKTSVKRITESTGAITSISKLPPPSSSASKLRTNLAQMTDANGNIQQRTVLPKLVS
Put plainly: Inhibition of human DYRK2 using RRRFRPASPLRGPPK as substrate at 1 uM in presence of 32P-ATP by Hotspot assay relative to control; values are per cent of control.

Test [11] deals with Serine/threonine-protein kinase pim-3 (Homo sapiens) (UniProt Q86V86). Briefly: Inhibition of human PIM3 using RSRHSSYPAGT as substrate at 1 uM in presence of 32P-ATP by Hotspot assay relative to control; values are per cent of control.
Test [12] has as its target CDK4/Cyclin D3 (Homo sapiens) (UniProt P11802+P30281). Put plainly: Inhibition of human CDK4/cyclin D3 using RB-CTF as substrate at 1 uM in presence of 32P-ATP by Hotspot assay relative to control; values are per cent of control.
The target in test [13] is Casein kinase I isoform epsilon (Homo sapiens) (UniProt P49674). Put plainly: Inhibition of human CK1epsilon using KRRRAL[pS]VASLPGL as substrate at 1 uM in presence of 32P-ATP by Hotspot assay relative to control; values are per cent of control.
Sequence of Casein kinase I isoform epsilon (Homo sapiens) (P49674 whole entry, looked up, canonical isoform): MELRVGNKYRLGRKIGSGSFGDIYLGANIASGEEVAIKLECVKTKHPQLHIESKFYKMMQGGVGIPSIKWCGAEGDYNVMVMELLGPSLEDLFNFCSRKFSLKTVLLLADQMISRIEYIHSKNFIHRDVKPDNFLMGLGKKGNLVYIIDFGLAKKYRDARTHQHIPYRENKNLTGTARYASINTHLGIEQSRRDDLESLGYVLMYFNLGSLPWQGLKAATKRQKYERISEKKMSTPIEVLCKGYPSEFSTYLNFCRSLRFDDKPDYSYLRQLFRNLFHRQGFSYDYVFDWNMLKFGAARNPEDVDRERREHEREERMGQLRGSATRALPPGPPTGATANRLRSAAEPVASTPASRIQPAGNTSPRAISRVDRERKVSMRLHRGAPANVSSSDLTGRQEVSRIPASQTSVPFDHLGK
Test [14] concerns the target Tyrosine-protein kinase Fgr (Homo sapiens) (UniProt P09769). Briefly: Inhibition of human FGR using poly[Glu:Tyr] (4:1) as substrate at 1 uM in presence of 32P-ATP by Hotspot assay relative to control; values are per cent of control.

Sequence of Epidermal growth factor receptor (Homo sapiens) (P00533 whole entry): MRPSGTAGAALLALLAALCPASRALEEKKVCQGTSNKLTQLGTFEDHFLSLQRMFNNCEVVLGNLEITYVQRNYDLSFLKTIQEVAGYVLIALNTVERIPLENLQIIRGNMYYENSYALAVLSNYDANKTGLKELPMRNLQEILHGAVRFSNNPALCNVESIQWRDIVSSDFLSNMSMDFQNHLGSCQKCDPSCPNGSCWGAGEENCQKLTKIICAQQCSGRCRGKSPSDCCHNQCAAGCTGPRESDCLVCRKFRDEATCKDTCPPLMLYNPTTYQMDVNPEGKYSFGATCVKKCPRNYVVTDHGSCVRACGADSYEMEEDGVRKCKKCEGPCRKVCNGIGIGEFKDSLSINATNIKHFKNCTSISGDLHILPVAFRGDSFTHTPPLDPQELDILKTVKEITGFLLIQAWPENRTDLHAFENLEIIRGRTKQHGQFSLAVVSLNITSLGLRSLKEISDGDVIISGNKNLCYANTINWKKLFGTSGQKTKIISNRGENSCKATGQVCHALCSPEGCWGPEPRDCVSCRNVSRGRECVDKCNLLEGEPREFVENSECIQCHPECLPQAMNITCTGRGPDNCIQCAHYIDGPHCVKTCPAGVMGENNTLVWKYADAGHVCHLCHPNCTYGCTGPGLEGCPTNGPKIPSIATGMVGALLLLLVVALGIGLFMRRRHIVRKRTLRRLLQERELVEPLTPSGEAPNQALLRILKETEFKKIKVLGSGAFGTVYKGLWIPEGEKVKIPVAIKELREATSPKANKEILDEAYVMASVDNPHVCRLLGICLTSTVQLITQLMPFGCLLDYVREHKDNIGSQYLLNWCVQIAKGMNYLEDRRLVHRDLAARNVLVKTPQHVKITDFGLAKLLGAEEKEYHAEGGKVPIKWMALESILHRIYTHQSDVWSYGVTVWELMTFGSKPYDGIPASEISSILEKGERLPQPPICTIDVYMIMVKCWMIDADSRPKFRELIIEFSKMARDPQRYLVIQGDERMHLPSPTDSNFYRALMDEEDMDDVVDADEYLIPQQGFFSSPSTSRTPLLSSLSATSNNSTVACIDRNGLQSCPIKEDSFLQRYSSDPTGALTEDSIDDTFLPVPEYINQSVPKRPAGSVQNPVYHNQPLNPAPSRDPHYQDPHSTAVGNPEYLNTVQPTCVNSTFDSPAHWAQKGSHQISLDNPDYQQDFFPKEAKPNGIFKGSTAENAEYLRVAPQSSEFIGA
Sequence of Myosin light chain kinase, smooth muscle (Homo sapiens) (Q15746 whole entry, canonical isoform): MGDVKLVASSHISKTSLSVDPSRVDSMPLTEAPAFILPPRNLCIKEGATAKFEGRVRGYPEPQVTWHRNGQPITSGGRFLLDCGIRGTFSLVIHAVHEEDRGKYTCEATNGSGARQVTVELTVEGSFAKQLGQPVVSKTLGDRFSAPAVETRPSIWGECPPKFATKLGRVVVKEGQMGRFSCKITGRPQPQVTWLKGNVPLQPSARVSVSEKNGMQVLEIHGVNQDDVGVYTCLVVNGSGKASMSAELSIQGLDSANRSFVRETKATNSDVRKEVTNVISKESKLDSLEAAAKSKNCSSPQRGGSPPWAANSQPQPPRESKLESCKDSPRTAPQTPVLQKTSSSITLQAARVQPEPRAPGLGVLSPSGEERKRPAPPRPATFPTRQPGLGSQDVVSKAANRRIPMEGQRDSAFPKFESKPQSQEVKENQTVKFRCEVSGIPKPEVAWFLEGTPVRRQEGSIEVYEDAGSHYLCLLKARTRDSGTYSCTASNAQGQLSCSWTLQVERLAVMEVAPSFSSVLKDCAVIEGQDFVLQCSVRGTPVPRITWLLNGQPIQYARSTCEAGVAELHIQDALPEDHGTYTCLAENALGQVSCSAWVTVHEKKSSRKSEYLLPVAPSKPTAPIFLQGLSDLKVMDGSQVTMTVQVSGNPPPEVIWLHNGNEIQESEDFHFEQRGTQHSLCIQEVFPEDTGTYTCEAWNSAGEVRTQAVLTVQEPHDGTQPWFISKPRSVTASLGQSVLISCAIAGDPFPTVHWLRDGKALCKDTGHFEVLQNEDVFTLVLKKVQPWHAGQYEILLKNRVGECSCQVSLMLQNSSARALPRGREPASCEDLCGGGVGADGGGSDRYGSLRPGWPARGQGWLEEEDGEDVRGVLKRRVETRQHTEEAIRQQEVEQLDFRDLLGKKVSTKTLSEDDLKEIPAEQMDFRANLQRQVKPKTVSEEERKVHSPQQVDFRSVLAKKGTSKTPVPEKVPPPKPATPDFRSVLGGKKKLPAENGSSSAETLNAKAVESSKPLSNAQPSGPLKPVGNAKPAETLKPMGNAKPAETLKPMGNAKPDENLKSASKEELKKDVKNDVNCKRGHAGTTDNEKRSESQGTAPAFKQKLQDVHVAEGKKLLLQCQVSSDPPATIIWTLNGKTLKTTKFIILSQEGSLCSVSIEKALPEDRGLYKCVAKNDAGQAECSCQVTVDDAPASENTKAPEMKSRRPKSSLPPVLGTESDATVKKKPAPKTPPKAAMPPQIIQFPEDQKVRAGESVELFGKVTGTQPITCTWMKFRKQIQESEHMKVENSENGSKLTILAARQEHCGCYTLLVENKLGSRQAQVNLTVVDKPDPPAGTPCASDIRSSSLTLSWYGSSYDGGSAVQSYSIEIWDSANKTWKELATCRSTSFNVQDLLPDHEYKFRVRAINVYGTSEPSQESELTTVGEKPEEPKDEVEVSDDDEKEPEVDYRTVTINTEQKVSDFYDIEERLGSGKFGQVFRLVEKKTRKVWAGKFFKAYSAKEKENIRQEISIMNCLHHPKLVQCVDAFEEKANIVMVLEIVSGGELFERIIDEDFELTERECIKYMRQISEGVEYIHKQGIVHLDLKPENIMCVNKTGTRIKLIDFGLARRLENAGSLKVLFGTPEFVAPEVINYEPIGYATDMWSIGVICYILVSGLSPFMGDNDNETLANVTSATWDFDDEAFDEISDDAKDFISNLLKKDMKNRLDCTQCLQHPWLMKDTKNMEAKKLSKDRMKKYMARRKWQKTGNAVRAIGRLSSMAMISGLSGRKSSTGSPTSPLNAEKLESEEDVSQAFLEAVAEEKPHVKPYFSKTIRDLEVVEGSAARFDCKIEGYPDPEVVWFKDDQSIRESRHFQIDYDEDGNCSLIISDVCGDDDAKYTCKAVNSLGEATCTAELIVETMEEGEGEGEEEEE

For orientation: residual activity means the signal under treatment as a percentage of the control signal. Broadly, the inhibition is the share of the control response that was lost under treatment. `CC(C)S(=O)(=O)c1ccc2nccc(Nc3ccc4scnc4c3)c2c1`: the residual activity was found to be 106% in [1]; 18% in test [2]; 97.8% in [3]; 98.8% in [4]; 97.9% in test [5]; 105% in test [6]. Moreover, the residual activity in test [7] was determined as 90.7%; in test [8], 92.8%; in [10], 101%; in test [11], 94.2%; in test [12], 102%; in [13], 106%. In test [14], the residual activity was 28.5%. In addition, the inhibition in [9] is 93.1%.
Take `CNC(=O)c1ccc2c(c1)ncn2-c1ccc(CC(=O)OC(C)(C)C)cc1`: the residual activity stood at 101% in test [1]; 79.4% in test [2]; 98.2% in test [3]; 104% in test [4]; 97.7% in test [5]; 98.5% in test [6]. Further, the residual activity in test [7] is 97.7%; in test [8], 104%; in [10], 96.1%; in [11] it was 99.9%; in test [12] it was 98.2%; in test [13] it was 94.2%. For the same molecule, the residual activity in test [14] was 37.6%. Besides, the inhibition in test [9] stood at 93.2%.
For `Cc1cc(-c2cnc(N)c3c(-c4ccc5scnc5c4)csc23)n(C)n1`, the residual activity in test [1] is 92.9%; in test [2] it was 5.73%; in test [3], 97.4%; in test [4], 106%; in test [5], 95.3%; in test [6], 88.4%. Also, the residual activity in test [7] came to 93.9%; in test [8] it was 98.3%; in test [10], 78.5%; in [11], 99.5%; in test [12], 108%; in test [13], 73%. The residual activity in [14] stood at 22.2%. For the same molecule, the inhibition in test [9] turned out to be 92%.
